Reference: patent US20230219904A1 (SYNGENTA CROP PROTECTION AG, priority 2020, published 2023)

Key:
Format in all cases: in vivo
Settings in all cases: evaluated after 13 days
Setaria faberi (SETFA) [1] = test: Post-emergence herbicidal glasshouse test (Table B1)
Method in brief: (§1)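 Glasshouse pot test: compounds sprayed pre-emergence (day 1) or post-emergence (day 8) at 500 g/h unless stated. Evaluation at 13 days as percentage damage, reported on a five-point scale where 5 means 80-100%.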

[2] = tested on: Amaranthus retoflexus (AMARE); test: as above
Method in brief: as §1

[3] = tested on: Ipomoea hederacea (IPOHE); test: as above
Method in brief: as §1

[4] = tested on: Abutilon theophrasti (ABUTH); test: as above
Method in brief: as §1

[5] = tested on: Echinochloa crus-galh (ECHCG); test: as above
Method in brief: as §1

Setaria faberi (SETFA) [6] = test: Pre-emergence herbicidal glasshouse test (Table B1)
Method in brief: as §1

[7] = tested on: Amaranthus retoflexus (AMARE); test: as above
Method in brief: as §1

[8] = tested on: Ipomoea hederacea (IPOHE); test: as above
Method in brief: as §1

[9] = tested on: Abutilon theophrasti (ABUTH); test: as above
Method in brief: as §1

[10] = tested on: Echinochloa crus-galh (ECHCG); test: as above
Method in brief: as §1

SMILES | POST Application SETFA, percentage damage on five-point scale (Setaria faberi (SETFA) [1]; applied at 500 g/h) | POST Application AMARE, percentage damage on five-point scale ([2]; applied at 500 g/h) | POST Application IPOHE, percentage damage on five-point scale ([3]; applied at 500 g/h) | POST Application ABUTH, percentage damage on five-point scale ([4]; applied at 500 g/h) | POST Application ECHCG, percentage damage on five-point scale ([5]; applied at 500 g/h) | PRE Application SETFA, percentage damage on five-point scale (Setaria faberi (SETFA) [6]; applied at 500 g/h) | PRE Application AMARE, percentage damage on five-point scale ([7]; applied at 500 g/h) | PRE Application IPOHE, percentage damage on five-point scale ([8]; applied) | PRE Application ABUTH, percentage damage on five-point scale ([9]; applied at 500 g/h) | PRE Application ECHCG, percentage damage on five-point scale ([10]; applied at 500 g/h) | POST Application SETFA, percentage damage on five-point scale (Setaria faberi (SETFA) [1]; applied at 125 g/ha) | POST Application AMARE, percentage damage on five-point scale ([2]; applied at 125 g/ha) | POST Application IPOHE, percentage damage on five-point scale ([3]; applied at 125 g/ha) | POST Application ABUTH, percentage damage on five-point scale ([4]; applied at 125 g/ha) | POST Application ECHCG, percentage damage on five-point scale ([5]; applied at 125 g/ha) | PRE Application SETFA, percentage damage on five-point scale (Setaria faberi (SETFA) [6]; applied at 125 g/ha) | PRE Application AMARE, percentage damage on five-point scale ([7]; applied at 125 g/ha) | PRE Application IPOHE, percentage damage on five-point scale ([8]; applied at 125 g/ha) | PRE Application ABUTH, percentage damage on five-point scale ([9]; applied at 125 g/ha) | PRE Application ECHCG, percentage damage on five-point scale ([10]; applied at 125 g/ha)
CCn1nnnc1NC(=O)c1ccc(OC(F)(F)C(F)F)c(NC(=O)C2CC2)c1Cl [Compound 1.102] | 5 (5=80-100%) | 5 (5=80-100%) | 5 (5=80-100%) | 5 (5=80-100%) | 5 (5=80-100%) | 4 (4=60-79%) | 5 (5=80-100%) | 1 (1=0-19%) | 4 (4=60-79%) | 5 (5=80-100%) |  |  |  |  |  |  |  |  |  | 
CC(=O)N(C)c1c(OC(F)(F)F)ccc(C(=O)Nc2nnc(C)o2)c1Cl [Compound 2.003] | 5 (5=80-100%) | 5 (5=80-100%) | 5 (5=80-100%) | 5 (5=80-100%) | 5 (5=80-100%) | 5 (5=80-100%) | 5 (5=80-100%) | 4 (4=60-79%) | 5 (5=80-100%) | 5 (5=80-100%) |  |  |  |  |  |  |  |  |  | 
CCC(=O)N(CC)c1c(OC(F)F)ccc(C(=O)Nc2nnnn2C)c1Cl [Compound 1.021] |  |  |  |  |  |  |  |  |  |  | 4 (4=60-79%) | 3 (3=40-59%) | 3 (3=40-59%) | 4 (4=60-79%) | 4 (4=60-79%) | 3 (3=40-59%) | 3 (3=40-59%) | 3 (3=40-59%) | 5 (5=80-100%) | 3 (3=40-59%)
CCn1nnnc1NC(=O)c1ccc(OC(F)(F)F)c(NC(=O)C(C)C)c1Cl [Compound 1.118] |  |  |  |  |  |  |  |  |  |  | 4 (4=60-79%) | 4 (4=60-79%) | 4 (4=60-79%) | 4 (4=60-79%) | 4 (4=60-79%) | 4 (4=60-79%) | 4 (4=60-79%) | 2 (2=20-39%) | 4 (4=60-79%) | 5 (5=80-100%)
CN(C)c1c(OC(F)(F)F)ccc(C(=O)Nc2nnnn2C)c1Cl [Compound 1.001] | 5 (5=80-100%) | 5 (5=80-100%) | 5 (5=80-100%) | 5 (5=80-100%) | 5 (5=80-100%) | 5 (5=80-100%) | 5 (5=80-100%) | 5 (5=80-100%) | 5 (5=80-100%) | 5 (5=80-100%) |  |  |  |  |  |  |  |  |  | 
Cn1nnnc1NC(=O)c1ccc(OC(F)(F)F)c(NC(=O)C2(C)CC2)c1Cl [Compound 1.033] | 5 (5=80-100%) | 5 (5=80-100%) | 5 (5=80-100%) | 5 (5=80-100%) | 5 (5=80-100%) | 5 (5=80-100%) | 5 (5=80-100%) | 5 (5=80-100%) | 5 (5=80-100%) | 5 (5=80-100%) |  |  |  |  |  |  |  |  |  | 
CCn1nnnc1NC(=O)c1ccc(OC(F)(F)F)c(NC(=O)C(C)F)c1Cl (centres unmarked) [Compound 1.127] | 5 (5=80-100%) | 5 (5=80-100%) | 5 (5=80-100%) | 5 (5=80-100%) | 5 (5=80-100%) | 3 (3=40-59%) | 5 (5=80-100%) | 2 (2=20-39%) | 5 (5=80-100%) | 5 (5=80-100%) |  |  |  |  |  |  |  |  |  | 
CCCn1nnnc1NC(=O)c1ccc(OC(F)(F)F)c(NC(=O)c2ccccn2)c1Cl [Compound 1.132] | 5 (5=80-100%) | 5 (5=80-100%) | 5 (5=80-100%) | 5 (5=80-100%) | 5 (5=80-100%) | 1 (1=0-19%) | 5 (5=80-100%) | 4 (4=60-79%) | 4 (4=60-79%) | 3 (3=40-59%) |  |  |  |  |  |  |  |  |  | 
COC(C)(C)C(=O)Nc1c(OC(F)(F)F)ccc(C(=O)Nc2nnnn2C)c1Cl [Compound 1.125] | 5 (5=80-100%) | 5 (5=80-100%) | 5 (5=80-100%) | 5 (5=80-100%) | 5 (5=80-100%) | 1 (1=0-19%) | 5 (5=80-100%) | 4 (4=60-79%) | 5 (5=80-100%) | 5 (5=80-100%) |  |  |  |  |  |  |  |  |  | 
CCCn1nnnc1NC(=O)c1ccc(OC(F)(F)F)c(NC(C)=O)c1Cl [Compound 1.129] | 5 (5=80-100%) | 5 (5=80-100%) | 5 (5=80-100%) | 5 (5=80-100%) | 5 (5=80-100%) | 1 (1=0-19%) | 5 (5=80-100%) | 2 (2=20-39%) | 5 (5=80-100%) | 4 (4=60-79%) |  |  |  |  |  |  |  |  |  | 
COC(C)C(=O)Nc1c(OC(F)(F)F)ccc(C(=O)Nc2nnnn2C)c1Cl (centres unmarked) [Compound 1.063] |  |  |  |  |  |  |  |  |  |  | 5 (5=80-100%) | 5 (5=80-100%) | 4 (4=60-79%) | 5 (5=80-100%) | 5 (5=80-100%) | 5 (5=80-100%) | 5 (5=80-100%) | 5 (5=80-100%) | 5 (5=80-100%) | 5 (5=80-100%)
